Measurements published in EP4596574A1, “GLP-1/GCG/GIP TRIPLE-RECEPTOR AGONIST AND USE THEREOF” (Sunshine Lake Pharma Co., Ltd., priority 2022, dated 2024).
Marks after values point to notes of the source that are not given here.

Experiments:
[1] = biological target: T1, GLP-1R (Homo sapiens, UniProt P43220); experiment: In vitro cell activity, cAMP production in HEK293 cells expressing GLP-1R; type: cell-based
T1 construct: expressed in transfected cells; host or cells: HEK293 (HEK293-GLP-1R)
Outline: (§1)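 Cells were plated at 4×10^5 cells/mL, and detection reagents (cAMP-d2, anti-cAMP cryptate, 1:1) were incubated 1 h at room temperature in the dark or overnight at 4 °C.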

[2] = biological target: T2, GCGR (Homo sapiens, UniProt P47871); experiment: In vitro cell activity, cAMP production in HEK293 cells expressing GCGR; type: cell-based
T2 construct: expressed in transfected cells; host or cells: HEK293 (HEK293-GCGR)
T2 sequence (P47871 26-477, species assumed): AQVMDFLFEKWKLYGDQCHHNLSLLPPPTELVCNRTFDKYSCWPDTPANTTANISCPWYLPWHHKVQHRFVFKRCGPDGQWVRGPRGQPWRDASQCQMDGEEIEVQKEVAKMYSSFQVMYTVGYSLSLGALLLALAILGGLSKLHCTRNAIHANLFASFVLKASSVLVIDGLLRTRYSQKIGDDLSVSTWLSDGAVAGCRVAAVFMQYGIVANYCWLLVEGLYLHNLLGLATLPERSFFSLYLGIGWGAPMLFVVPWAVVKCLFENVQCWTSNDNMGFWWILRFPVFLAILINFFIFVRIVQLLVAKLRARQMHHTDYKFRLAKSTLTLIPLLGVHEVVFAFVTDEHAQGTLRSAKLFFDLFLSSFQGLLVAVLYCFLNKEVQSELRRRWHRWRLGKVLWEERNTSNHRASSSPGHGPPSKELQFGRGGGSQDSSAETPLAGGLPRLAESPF
Outline: as §1

[3] = biological target: T3, GIPR (Homo sapiens, UniProt P48546); experiment: In vitro cell activity, cAMP production in HEK293 cells expressing GIPR; type: cell-based
T3 construct: expressed in transfected cells; host or cells: HEK293 (HEK293-GIPR)
T3 sequence (P48546 22-466): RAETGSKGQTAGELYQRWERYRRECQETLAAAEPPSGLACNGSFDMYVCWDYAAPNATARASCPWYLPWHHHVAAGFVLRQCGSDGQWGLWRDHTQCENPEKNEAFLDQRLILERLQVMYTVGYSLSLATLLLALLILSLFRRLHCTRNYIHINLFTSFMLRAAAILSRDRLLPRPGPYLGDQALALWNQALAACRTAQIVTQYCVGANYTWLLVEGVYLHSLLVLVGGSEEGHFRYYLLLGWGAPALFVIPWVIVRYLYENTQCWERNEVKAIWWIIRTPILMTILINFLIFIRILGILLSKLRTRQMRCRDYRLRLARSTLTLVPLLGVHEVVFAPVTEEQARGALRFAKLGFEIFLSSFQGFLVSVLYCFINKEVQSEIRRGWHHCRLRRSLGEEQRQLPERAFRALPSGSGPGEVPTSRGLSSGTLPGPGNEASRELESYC
Outline: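 cAMP accumulation is quantified by homogeneous TR-FRET (cAMP-d2 plus anti-cAMP cryptate) in GIPR-expressing HEK293 cells seeded from a 4×10^5 cells/mL suspension and treated with compound. The signal ratio is plotted against concentration and fitted to a four-parameter curve to give EC50.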

[4] = Glucose tolerance assessment in normal C57BL/6 mice (Example 5); type: in vivo
Experimental: Twelve hours after the single administration, the animals were fasted for 12 hours and had free access to water. Blood was collected from the tail vein to determine the basal blood glucose level of each group of animals, and then 2 g/kg glucose solution was injected intraperitoneally. Blood glucose was tested at 15, 30, 60, and 90 min after glucose administration. The blood glucose concentration-time curve was drawn according to the blood glucose values measured at different time points, and the AUC0~90min of each dose group was calculated as shown in Table 5 and Figure 2. Table 5: Effects of single administration of HEC-PT86, HEC-PT96, HEC-PT112, HEC-PT113, HEC-PT114, and HEC-PT119 on glucose tolerance in normal C57 mice 24 h after administration

[5] = Long-term repeated administration in diet-induced obese C57BL/6 mice (DIO); type: in vivo, C57/BL6 mice
Text: Experimental methods: C57/BL6 mice were randomly divided into a normal group (NFD) and a model group (HFD) at the fifth week of age. The normal group was fed with ordinary maintenance feed, while the other groups were fed with high-fat feed D12492. The body weight and food intake of mice were monitored every 3 weeks. After 16 weeks of feeding, the body weights of mice in the model group and the normal group were (49.0±2.3) g and (31.0±2.0) g, respectively, and the difference between the two groups was statistically significant. […] Body weight and food intake were measured before each administration. After 3 weeks of administration, an intraperitoneal glucose tolerance test was performed. The mice were slaughtered and samples were collected 72 h after the last administration. The liver weight was recorded, and the liver pathological conditions and blood biochemical indexes of each group were tested.

[6] = 10 nmol/kg s.c. once every 3 days, D7
[7] = 10 nmol/kg s.c. once every 3 days, D10
[8] = 10 nmol/kg s.c. once every 3 days, D13
[9] = 10 nmol/kg s.c. once every 3 days, D16
[10] = 10 nmol/kg s.c. once every 3 days, D19
[11] = 10 nmol/kg s.c. once every 3 days, D22
[12] = 10 nmol/kg s.c. once every 3 days, D25
[13] = 10 nmol/kg s.c. once every 3 days, D28
[14] = after 4 weeks of administration, same dose
[15] = long-term administration 10 nmol/kg, 72 h after the last administration
[16] = long-term administration 10 nmol/kg, blood biochemical index

T1 sequence (P43220 24-463, species assumed): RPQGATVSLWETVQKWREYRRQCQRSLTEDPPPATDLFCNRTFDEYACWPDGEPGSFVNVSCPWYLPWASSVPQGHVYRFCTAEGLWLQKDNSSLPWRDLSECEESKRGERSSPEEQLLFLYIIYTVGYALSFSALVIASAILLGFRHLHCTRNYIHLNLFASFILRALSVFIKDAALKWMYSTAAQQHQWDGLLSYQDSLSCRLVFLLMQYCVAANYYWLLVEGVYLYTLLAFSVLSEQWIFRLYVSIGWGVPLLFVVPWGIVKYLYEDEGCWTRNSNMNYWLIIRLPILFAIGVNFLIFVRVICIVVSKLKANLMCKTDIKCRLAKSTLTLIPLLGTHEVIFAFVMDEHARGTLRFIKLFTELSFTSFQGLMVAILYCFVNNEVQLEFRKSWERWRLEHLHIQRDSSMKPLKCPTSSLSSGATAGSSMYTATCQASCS

CC[C@H](C)[C@H](NC(=O)[C@H](Cc1ccccc1)NC(=O)[C@H](C)NC(=O)C(C)(C)NC(=O)[C@H](CCC(N)=O)NC(=O)[C@H](CCCNC(=N)N)NC(=O)[C@H](CCCCNC(=O)COCCOCCNC(=O)CC[C@H](NC(=O)CCCCCCCCCCCCCCCCC(=O)O)C(=O)O)NC(=O)[C@H](CCC(=O)O)NC(=O)[C@H](CC(=O)O)NC(=O)[C@H](CC(C)C)NC(=O)[C@H](CC(C)C)NC(=O)[C@@H](NC(=O)[C@H](CO)NC(=O)[C@H](Cc1ccc(O)cc1)NC(=O)[C@H](CC(=O)O)NC(=O)[C@H](CO)NC(=O)[C@@H](NC(=O)[C@](C)(Cc1ccccc1F)NC(=O)[C@@H](NC(=O)CNC(=O)[C@H](CCC(N)=O)NC(=O)C(C)(C)NC(=O)[C@@H](N)Cc1ccc(O)cc1)[C@@H](C)O)[C@@H](C)O)[C@@H](C)CC)C(=O)N[C@@H](CCC(=O)O)C(=O)N[C@@H](Cc1ccc(O)cc1)C(=O)N[C@@H](CC(C)C)C(=O)N[C@@H](CC(C)C)C(=O)N[C@@H](C)C(=O)NCC(=O)NCC(=O)N1CCC[C@H]1C(=O)N[C@@H](CO)C(=O)N[C@@H](CO)C(=O)NCC(=O)N[C@@H](C)C(=O)N1CCC[C@H]1C(=O)N1CCC[C@H]1C(=O)N1CCC[C@H]1C(=O)N[C@@H](CO)C(N)=O [HEC-PT112]
EC50 [1]: 0.183 nM
EC50 [2]: 0.871 nM
EC50 [3]: 0.0534 nM
Blood glucose level (mM) 15 min ([4]; 3 nmol/kg s.c. single dose, 24 h after administration, 15 min after 2 g/kg glucose i.p.): 11.7 ± 2.6 mM
Blood glucose level (mM) 30 min ([4]; 3 nmol/kg s.c. single dose, 24 h after administration, 30 min after 2 g/kg glucose i.p.): 8.6 ± 1.9 mM
Blood glucose level (mM) 60 min ([4]; 3 nmol/kg s.c. single dose, 24 h after administration, 60 min after 2 g/kg glucose i.p.): 7.3 ± 0.7 mM
Blood glucose level (mM) 90 min ([4]; 3 nmol/kg s.c. single dose, 24 h after administration, 90 min after 2 g/kg glucose i.p.): 6.7 ± 0.6 mM
Blood glucose level (mM) 0 min ([4]; 3 nmol/kg s.c. single dose, 24 h after administration, basal before 2 g/kg glucose i.p.): 4.9 ± 1.3 mM
improvement of glucose tolerance compared with LY3298176 ([4]; 24 hours after a single administration, 3 nmol/kg): improved glucose tolerance in mice better than the positive control LY3298176
AUC0-90 min ([4]; blood glucose AUC, 3 nmol/kg s.c. single dose, 24 h after administration, 2 g/kg glucose i.p.): 726.2±82.4^a
Cumulative food intake (g/pcs) D7 [5, 6]: 5.6 g/pcs
Weight gain rate (%) D7 [5, 6]: -21.3±4.0%
Cumulative food intake (g/pcs) D10 [5, 7]: 7.8 g/pcs
Weight gain rate (%) D10 [5, 7]: -28.6±7.0%
Cumulative food intake (g/each) D13 [5, 8]: 10.6 g/each
Weight gain rate (%) D13 [5, 8]: -32.4±7.7%
Cumulative food intake (g/each) D16 [5, 9]: 15.5 g/each
Weight gain rate (%) D16 [5, 9]: -34.0±7.1%
Cumulative food intake (g/each) D19 [5, 10]: 21.0 g/each
Weight gain rate (%) D19 [5, 10]: -34.5±5.7%
Cumulative food intake (g/each) D22 [5, 11]: 26.6 g/each
Weight gain rate (%) D22 [5, 11]: -35.6±5.6%
Cumulative food intake (g/each) D25 [5, 12]: 32.3 g/each
Weight gain rate (%) D25 [5, 12]: -36.4±5.1%
Cumulative food intake (g/each) D28 [5, 13]: 39.1 g/each
Weight gain rate (%) D28 [5, 13]: -36.2±4.3%
Cumulative food intake (g/each) D30 ([5]; 10 nmol/kg s.c. once every 3 days, D30): 43.0^a g/each
Weight gain rate (%) D31 ([5]; 10 nmol/kg s.c. once every 3 days, D31): -35.6±4.3^a %
Cumulative food intake (g/pcs) D0 ([5]; 10 nmol/kg s.c., D0): 2.3 g/pcs
Weight gain rate (%) D0 ([5]; 10 nmol/kg s.c., D0): 0.0±0.0%
Cumulative food intake (g/pcs) D1 ([5]; 10 nmol/kg s.c., D1): 2.5 g/pcs
Weight gain rate (%) D1 ([5]; 10 nmol/kg s.c., D1): -5.4±0.9%
Cumulative food intake (g/pcs) D2 ([5]; 10 nmol/kg s.c., D2): 2.9 g/pcs
Weight gain rate (%) D2 ([5]; 10 nmol/kg s.c., D2): -8.8±0.8%
Cumulative food intake (g/pcs) D3 ([5]; 10 nmol/kg s.c., D3): 3.5 g/pcs
Weight gain rate (%) D3 ([5]; 10 nmol/kg s.c., D3): -10.6±1.0%
Cumulative food intake (g/pcs) D4 ([5]; 10 nmol/kg s.c., D4): 4.1 g/pcs
Weight gain rate (%) D4 ([5]; 10 nmol/kg s.c., D4): -12.6±1.7%
liver function and blood lipids of DIO mice ([5]; after 4 weeks of administration): significantly improved the liver function and blood lipids
food intake inhibition effect compared with LY3298176 [5, 14]: certain advantages in inhibiting food intake
weight loss effect compared with LY3298176 [5, 14]: significantly better than that of LY3298176
Liver index/% [5, 15]: 3.0±0.0^a %
Liver/g [5, 15]: 0.9±0.1^a g
Weight/g [5, 15]: 29.7±2.5^a g
ALT (U/L) [5, 16]: 25.9±6.6^a U/L
AST (U/L) [5, 16]: 115.3±16.2^a U/L
CHOL (mmol/L) [5, 16]: 3.1±0.5^a mmol/L
TRIGL (mmol/L) [5, 16]: 0.6±0.1^a mmol/L
